{
  "source": "patent US9889093B2",
  "about": "“Application of andrographolide in the preparation of a pharmaceutical for treatment of inflammatory bowel disease, andrographolide enteric targeting micropellet, and method for preparation thereof” (TASLY PHARMACEUTICAL GROUP CO., LTD., priority 2013, dated 2018)",
  "assay_type_in_all_cases": "in vivo",
  "key": {"TNBS-induced UC rats": {"system": "TNBS-induced UC rats", "experiment": "TNBS-induced UC rat model, different administration routes", "details": "for Gross morphological injury score / Ulcer ratio: 5 days", "description": "4 Dose Designing and Grouping • 4.1 Grouping: quarantine-qualified 84 rats were all used for making UC model. The successful rats were randomly divided into 6 groups: the model control group, the positive control group, the andrographolide low-dose intragastric group, the andrographolide high-dose intragastric group, the andrographolide low-dose intracolonical group and the andrographolide high-dose intracolonical group, 14 rats per group. • 4.2 Dose: the same doses were adopted in both intragastric and intracolonical groups. Animals were not treated in the model control group, the positive control group (mesalazine enteric tablet, 420 mg·kg^−1·d^−1), the andrographolide low-dose intragastric group (30 mg·kg^−1·d^−1), the andrographolide high-dose intragastric group (90 mg·kg^−1·d^−1), the andrographolide low-dose intracolonical group (30 mg·kg^−1·d^−1) and the andrographolide high-dose intracolonical group (90 mg·kg^−1·d^−1).\n5. Method • 5.1 Method of making UC model: the rats were anesthetized. 2 mm-diameter latex tube was gently inserted into the position about 8 cm inside the body of the rats through anus, and TNBS in 50% ethanol solution (TNBS 125 mg/kg) was injected into intestinal lumen with an injector by one time, 0.5 ml/rat. The tail of the rat was lifted up for 30 s to make the model making agent (i.e., TNBS) fully infiltrate into the intestinal lumen of the rats. • 5.2 Method of administration: the same dose (1 mL/100 g) was adopted in both intragastric and intracolonical administration, once daily for consecutive 5 days. • 5.3 Method for sampling in experiment: 2 hours after the last administration, the rats were killed by cervical vertebra dislocation and abdomen was opened to separate the colon. Along mesenteric side, the intestinal lumen was cut and rinsed with 4° C. normal saline and spread on a plastic plate. • 5.4 Scoring method for colon gross morphological injury was referred to scoring method for mucosal injury (Bjelkengren G, Aronsen K F, Augustsson N E, etc. Radioprotective effect of local administration of lysine vasopressin and triglycyl lysine vasopressin on the rectal mucosa in rats[J]. Acta Oncol, 1995, 34(4):487-92) to record the mucosal injury score: dotted line blooding and small red spots (<1 mm): 1 score, piece blooding and big red spots (=1 mm): 3 score; and erosion and ulcer: 5 score.\nData were expressed as mean+standard deviation (x±S). All numerical variables were analyzed with SPSS13.0 software by one-way ANOVA. T-test analysis was used for inter-group comparison."}, "[1]": {"system": "zebra fish Crohn's disease model", "experiment": "Zebra fish Crohn's disease model (TNBS), efficacy", "details": "48 hours", "protocol": "Crohn's disease model (mainly inflammation) was built by using TNBS (2,4,6-trinitrobenzenesulfonic acid), and 30 zebra fishes were randomly divided into each treating group. […] Image analysis software was used to analyze the pictures. Moreover, the intestinal mucosal thickness, intestinal lumen diameter and intestinal lumen area were observed carefully under a microscope and the intestinal lumen diameter and intestinal lumen area were analyzed quantitatively. Therapeutical efficacy of the tested drug in zebra fish Crohn's disease was calculated in accordance with the intestinal lumen area in each group. The calculation formula was presented as follows: Therapeutical efficacy (%)=[1−(the administration group−the blank control group)/(the model group−the blank control group)]×100%\nStatistically analyzed results were expressed as mean±SE. Variance analysis was used for comparison among many groups, and Dunnett's T test for comparison between two groups."}, "zebra fish": {"system": "zebra fish", "experiment": "Exploration of concentration in zebra fish (toxicity and death)", "details": "0.1 to 500 μg/mL in fish farm water, 30 zebra fishes per concentration", "protocol": "Fish farm water of wild-type AB strain zebra fish Crohn's disease model (1 L reverse osmosis water was added with 200 mg instant sea salt with a conductivity of […], pH value of 6.9˜7.2 and hardness of 53.7˜71.6 mg/L CaCO3) was added with the andrographolide in the concentrations of 0 μg/mL, 0.1 μg/mL, 1 μg/mL, 10 μg/mL, 100 μg/mL and 500 μg/mL. At each concentration, 30 zebra fishes were treated, during which death number of the zebra fishes was counted daily and the dead fishes were removed in time. After treatment, the death number of the zebra fishes in each group was analyzed statistically to draw the optimum concentration-effect curve by using JMP software and calculate MNLC. […] As a result, the following four concentrations were selected for efficacy evaluation in Crohn's disease in this study: 50 μg/mL, 100 μg/mL, 250 μg/mL and 500 μg/mL."}, "[2]": {"system": "zebra fish Crohn's disease model", "experiment": "Zebra fish Crohn's disease model (TNBS), efficacy", "details": "for Inflammation regression ratio: based on neutrophil infiltration; for Number of Neutrophil: intestinal tissue, x ± SE, n = 10; for Ratio with the blank control group: neutrophil number"}, "[3]": {"details": "andrographolide high-dose 90 mg/kg, intracolonical"}, "[4]": {"details": "andrographolide high-dose 90 mg/kg, intragastric"}, "[5]": {"details": "andrographolide low-dose 30 mg/kg, intracolonical"}, "[6]": {"details": "andrographolide low-dose 30 mg/kg, intragastric"}},
  "note": "Marks after values point to notes of the source that are not given here.",
  "data": [
    {"smiles": "C=C1CC[C@@H]2[C@](C)(CO)[C@H](O)CC[C@@]2(C)[C@@H]1C/C=C1/C(=O)OC[C@H]1O", "note": "[Andrographolide]", "values": [
      {"measurement": "Gross morphological injury score", "setting": "TNBS-induced UC rats; [3]", "result": "1.96 ± 1.09"},
      {"measurement": "Ulcer ratio", "setting": "TNBS-induced UC rats; [3]", "result": "17.21** %"},
      {"measurement": "Gross morphological injury score", "setting": "TNBS-induced UC rats; [4]", "result": "3.25 ± 1.98"},
      {"measurement": "Ulcer ratio", "setting": "TNBS-induced UC rats; [4]", "result": "29.21** %"},
      {"measurement": "Formless watery stool symptoms, course", "setting": "TNBS-induced UC rats; andrographolide high-dose intragastric and intracolonical groups, 90 mg/kg", "result": "totally disappeared on the 4th˜5th days"},
      {"measurement": "Gross morphological injury score", "setting": "TNBS-induced UC rats; [5]", "result": "6.53 ± 2.12"},
      {"measurement": "Ulcer ratio", "setting": "TNBS-induced UC rats; [5]", "result": "38.54* %"},
      {"measurement": "Gross morphological injury score", "setting": "TNBS-induced UC rats; [6]", "result": "6.71 ± 2.57"},
      {"measurement": "Ulcer ratio", "setting": "TNBS-induced UC rats; [6]", "result": "45.69* %"},
      {"measurement": "Intestinal lumen area reduced by (therapeutical efficacy)", "setting": "[1]; andrographolide 50 μg/ml", "result": "38±12.9", "unit": "%"},
      {"measurement": "Intestinal lumen area reduced by (therapeutical efficacy)", "setting": "[1]; andrographolide 100 μg/ml", "result": "49±8.9", "unit": "%"},
      {"measurement": "Intestinal lumen area reduced by (therapeutical efficacy)", "setting": "[1]; andrographolide 250 μg/ml", "result": "65±14.7", "unit": "%"},
      {"measurement": "Toxicity and death in zebra fish", "setting": "zebra fish", "result": "no toxicity and death were found"},
      {"measurement": "Intestinal lumen area reduced by (therapeutical efficacy)", "setting": "[2]; andrographolide 500 μg/ml, 48 hours", "result": "65±10.1", "unit": "%"},
      {"measurement": "Inflammation regression ratio", "setting": "[2]; andrographolide 50 μg/ml", "result": "45 ± 3.7", "unit": "%"},
      {"measurement": "Inflammation regression ratio", "setting": "[2]; andrographolide 50 μg/ml, listed as andrographolide", "result": "45±3.74", "unit": "%"},
      {"measurement": "Inflammation regression ratio", "setting": "[2]; andrographolide 100 μg/ml", "result": "46 ± 3.7", "unit": "%"},
      {"measurement": "Inflammation regression ratio", "setting": "[2]; andrographolide 100 μg/ml, listed as andrographolide", "result": "46±3.74", "unit": "%"},
      {"measurement": "Inflammation regression ratio", "setting": "[2]; andrographolide 250 μg/ml", "result": "63 ± 4.4", "unit": "%"},
      {"measurement": "Inflammation regression ratio", "setting": "[2]; andrographolide 250 μg/ml, listed as andrographolide", "result": "63±4.42", "unit": "%"},
      {"measurement": "Inflammation regression ratio", "setting": "[2]; andrographolide 500 μg/ml", "result": "79 ± 9.0", "unit": "%"},
      {"measurement": "Inflammation regression ratio", "setting": "[2]; andrographolide 500 μg/ml, listed as andrographolide", "result": "79±8.98", "unit": "%"},
      {"measurement": "Number of Neutrophil", "setting": "[2]; andrographolide 50 μg/ml", "result": "18 ± 0.54"},
      {"measurement": "Number of Neutrophil", "setting": "[2]; andrographolide 100 μg/ml", "result": "17 ± 0.54"},
      {"measurement": "Number of Neutrophil", "setting": "[2]; andrographolide 250 μg/ml", "result": "15 ± 0.64"},
      {"measurement": "Number of Neutrophil", "setting": "[2]; andrographolide 500 μg/ml", "result": "13 ± 1.30"},
      {"measurement": "Ratio with the blank control group", "setting": "[2]; andrographolide 50 μg/ml", "result": "1.97 ± 0.06"},
      {"measurement": "Ratio with the blank control group", "setting": "[2]; andrographolide 100 μg/ml", "result": "1.96 ± 0.06"},
      {"measurement": "Ratio with the blank control group", "setting": "[2]; andrographolide 250 μg/ml", "result": "1.67 ± 0.07"},
      {"measurement": "Ratio with the blank control group", "setting": "[2]; andrographolide 500 μg/ml", "result": "1.40 ± 0.15"}
    ]}
  ]
}
